Measured values published in patent publication US10398651B2, “Carrier-free nanoparticles” (priority 2016, dated 2019).

Key:
[1] = system: K562 chronic myelogenous leukemia cells; details: cited from earlier work
[2] = system: HeLa cervical cancer cells; details: cited from earlier work
HT-29 colon cancer cells = details: cited from earlier work
[3] = As-received PTX dissolved in FBS-containing media after 6 h; format: physicochemical; details: 6 h at 37° C.
Experimental: FIG. 23. […] One milligram of PTX was added to 1 mL of each medium and incubated for 6 h with agitation. A supernatant was separated from the undissolved PTX by centrifugation at 135,700 rcf for 10 min, extracted with 3 mL of ethyl acetate, which was evaporated and reconstituted in 50% ACN for HPLC analysis. […] The FBS suspension was sampled at 6 h to quantify dissolved PTX by that time. A supernatant was separated from the sample by 10 min centrifugation at 135,700 rcf and analyzed in the same way. The incubation time was limited to 6 h due to the instability of PTX in serum. Since the extraction method cannot differentiate protein-bound PTX from free PTX, the measured values represent the sum of serum protein-bound and free PTX. • [1] G. Bajaj, M. R. Kim, S. I. Mohammed, Y. Yeo, Hyaluronic acid-based hydrogel for regional delivery of paclitaxel to intraperitoneal tumors, J. Control. Release 158 (2012) 386-392. • [2] I. Ringel, S. B. Horwitz, Taxol is converted to 7-epitaxol, a biologically active isomer, in cell culture medium, J. Pharmacol. Exp. Ther. 242 (1987) 692-698.

B16F10 cells [4] = experiment: IC50 determination, MTT assay, B16F10 cells; format: cell-based; details: Mus musculus
Experimental: Cytotoxicity of NC was tested with B16F10 cells. B16F10 cells were grown in RPMI-1640 or DMEM medium supplemented with 10% FBS, penicillin (100 IU/mL) and streptomycin (100 μg/mL). B16F10 cells grown in RPMI-1640 were seeded in a 96 well plate at a density of 10,000 cells per well. After overnight incubation, the culture medium was replaced with a fresh cell culture medium, to which PNC-alb, Cim-C-alb, or Cim-F-alb were added to provide the final concentration eq. to 30 μg/mL PTX. After 3 h incubation, cells were washed with PBS twice to remove NC, followed by additional incubation for 21 h in NC-free medium. The cell viability was determined by the MTT (3-(4,5-dimethylthiazol-2-yl)-2,5-diphenyltetrazolium bromide) assay. Cells were treated with 75 μg of MTT and incubated for 3.5 h. The formazan crystals were dissolved in stop/solubilization solution (50% DMF, 20% SDS, pH 5) and quantified with a SpectraMax M3 microplate reader (Molecular Devices, CA, USA) at the wavelength of 562 nm.
(§1) Cytotoxicity of Cim-F-alb was tested with B16F10 cells and SKOV-3 human ovarian cancer cells (ATCC, Manassas, Va., USA) over a range of PTX concentrations. SKOV-3 cells were grown in RPMI-1640 medium containing 10% FBS and penicillin (100 IU/mL) and streptomycin (100 μg/mL). Both cells were treated with Cim-F-alb for 24 h, followed by post-treatment incubation in NC-free medium for 12-48 h. Free PTX and Abraxane were tested in the same manner for comparison. Cim-F-alb and Abraxane were directly reconstituted in PBS and serially diluted by a factor of 10. Free PTX solution was prepared as PTX stock solution in 50% DMSO at a concentration of 1 mg/mL and diluted in PBS. The maximum possible concentration of DMSO in the medium was 5% v/v. SKOV-3 cells and B16F10 cells grown in RPMI-1640 were tested with the MTT assay, and B16F10 cells grown in DMEM were tested with PI staining and flow cytometry. IC50 was calculated with GraphPad Prism 6 (La Jolla, Calif., USA).

[5] = system: SKOV-3 human ovarian cancer cells; experiment: IC50 determination, MTT assay, SKOV-3 cells; format: cell-based; details: SK-OV-3, SKOV3, 24 h treatment + 48 h post-treatment incubation
Experimental: as §1

B16F10 cells [6] = experiment: IC50 determination, PI staining and flow cytometry, B16F10 cells; format: cell-based; details: Mus musculus, B16-F10, 24 h treatment, PI staining + flow cytometry
Experimental: B16F10 cells grown in DMEM medium was tested with propidium iodide (PI) staining due to the production of melanin [32], which interferes with colorimetric assay. B16F10 cells were seeded in a 6 well plate at a density of 100,000 cells per well. After overnight incubation, the medium was replaced with fresh medium, to which 100 μL of PNC-alb, Cim-C-alb, or Cim-F-alb in PBS was added to provide the final concentration eq. to 30 μg/mL PTX. After incubation with NC for 3 h, cells were washed with PBS two times to remove NC, followed by additional incubation for 21 h in NC-free medium. Then, B16F10 cells were trypsinized and stained with PI (1 μg/mL) for 15 min in dark at room temperature. The cells were centrifuged at 300 g for 5 minutes to remove extra PI dye and reconstituted in PBS for flow cytometry (Accuri C6, BD Biosciences, San Jose, Calif.). At least 15,000 gated events were acquired, and FL-2 channel was monitored to determine the population of PI-stained cells.
Cytotoxicity of Cim-F-alb was tested with B16F10 cells and SKOV-3 human ovarian cancer cells (ATCC, Manassas, Va., USA) over a range of PTX concentrations. SKOV-3 cells were grown in RPMI-1640 medium containing 10% FBS and penicillin (100 IU/mL) and streptomycin (100 μg/mL). […] IC50 was calculated with GraphPad Prism 6 (La Jolla, Calif., USA).

Row | Compound | cytotoxicity [1] | cytotoxicity [2] | cytotoxicity (HT-29 colon cancer cells) | PTX dissolved in 10% FBS [3] [µg/mL] | PTX dissolved in 50% FBS [3] [µg/mL] | PTX dissolved in undiluted FBS [3] [µg/mL] | IC50 (B16F10 cells [4]; B16-F10, 24 h, B16F10, 24 h treatment + 24 h post-treatment incubation) [nM] | IC50 (B16F10 cells [4]; B16-F10, B16F10, 24 h treatment + 12 h post-treatment incubation) [nM] | IC50 (B16F10 cells [4]; B16-F10, B16F10, 24 h treatment + 48 h post-treatment incubation) [nM] | IC50 [5] [nM] | IC50 (B16F10 cells [6]) [nM]
1 | CCCCCCCCCCCCCCCC[N+](C)(C)C.[Br-] [CTAB, hexadecyltrimethylammonium bromide] | cytotoxic | cytotoxic | cytotoxic | – | – | – | – | – | – | – | –
2 | CC(=O)O[C@H]1C(=O)[C@@]2(C)[C@H]([C@H](OC(=O)c3ccccc3)[C@]3(O)C[C@H](OC(=O)[C@H](O)[C@@H](NC(=O)c4ccccc4)c4ccccc4)C(C)=C1C3(C)C)[C@]1(OC(C)=O)CO[C@@H]1C[C@@H]2O [Free PTX, paclitaxel] | – | – | – | 9.6 ± 2.6 | 47.5 ± 11.4 | 71.9 ± 8.2 | 213 | 91.3 | 765 | 34.2 | 423
